Measurements: patent publication US12121518B2, “PARP-1 and methods of use thereof” (The Board of Supervisors of Louisiana State University and …, priority 2017, dated 2024)

Legend:
MDSCs and T cells = experiment: FACS of tumor-infiltrating and spleen immune cells in the MC-38 model; format: in vivo, mouse
From the text: Tumors from the different experimental groups were either processed to generate single-cell suspensions or fixed with formalin. Single cell suspensions were stained with a combination of antibodies to CD45, CD11b, Gr1, Ly6C, and Ly6G. CD11b^+ cell population was gated from the live CD45^+ population. (A) Representative FACS dot plot of the experimental groups. (B) Absolute numbers and percentages of CD11b^+Gr1^+ cell populations in tumors of the different groups. (C) Absolute numbers and percentages of CD11b^+Ly6C^+ and CD11b^+Ly6G^+ populations in tumors of the different groups. (D) Absolute numbers and percentages of CD45^+CD3^+ and CD3^+CD8^+ cell populations in tumors of the different groups. […] (F) Percentages of CD45^+CD3^+ and CD3^+CD8^+ cell populations in spleens of the different groups. […] T cell proliferation was assessed by FACS. p≤0.05; **, p≤0.01; ***, p≤0.001.
Flow cytometric characterization of tumor infiltrating immune cells using fluorescence-activated cell sorting (FACS) analysis—Following digestion, tumor homogenates were filtered through a […] cell strainer to obtain a single cell suspension. Cell suspensions were then subjected to red blood cell lysis using ACK buffer for 5 minutes before resuspending in complete media. Cells were treated with anti-CD16/CD32 (BD; 2.4G2) for Fc blocking prior to staining with fluorescently-labeled mouse antibodies specific for CD45 (30-F11), CD3e (500A2) (both from eBioscience, San Diego, CA), Ly6C (AL-21), Ly6G (1A8), Gr1 (RB6-8C5), CD11b (M1/70), CD8 (53-6.7), and PD-1 (PA5-J43) (all from BD Biosciences, San Jose, CA). Single cells were gated by first using forward- and side-scatter doublet discrimination. Immune cells were discriminated from this doublet-excluded population using CD45. Myeloid cells were identified using a CD11b^+gate and MDSC subtypes identified by Gr1 selection and then plotted Ly6G/Ly6C. CD3^+ T-cells were gated from CD45^+ cells. CD4^+ and C8^+ T-cells were identified from CD3^+ gate. The detailed gating strategy is described in FIG. 45.

VCAM-1 and COX2 = experiment: TNF-α-induced VCAM-1 and COX2 expression in colon epithelial cells (immunoblot); format: cell-based, mouse; conditions: TNF-α-treated colon epithelial cells, 5 μM
Description: Referring to FIG. 1, for example, colon epithelial cells were treated with TNF-α for the indicated time intervals in the presence or absence 5 μM of the PARP inhibitor AZD2281.
Cell isolation, culture, treatments, RNA extraction, cDNA synthesis and quantitative PCR—Primary CEC were isolated essentially as described (29). The mouse colon adenocarcinoma (MC-38 or CT-26), Jurkat T, RAW264.7, or 3LL lung carcinoma cell lines were purchased from Kerafast (Boston, MA) or ATCC (Manassas, VA). Mouse embryonic fibroblasts were derived from WT, PARP-1^+/−, or PARP mice using standard protocols. CEC were serum-starved overnight in 0.5% FBS prior to treatment. […] Quantitative determination of gene expression levels using a 2-step cycling protocol was conducted on a MyIQ Cycler (Bio-Rad, Hercules, CA, USA). Relative expression levels were calculated using the 2[-Delta Delta C(T)] method. Quantities of all targets were normalized to the mouse β-actin gene.
Cell fractionation, protein extraction and immunoblot analysis—Tumor tissues or cells were harvested and homogenized in RIPA lysis buffer (Santa Cruz Biotechnology) containing a cocktail of protease and phosphatase inhibitors on ice. […] Protein expression signals developed by ECL (Pierce, ThermoFisher Scientific) were determined by a G:Box Gel Image Analysis System (Syngene, Cambridge, UK) equipped with the GeneSys image capture software.

overall CD3+ T cells in spleens (with concomitant decrease in CD8+) (MDSCs and T cells; moderate dose 5 mg/kg): substantial decrease
SMILES: O=C(c1cc(Cc2n[nH]c(=O)c3ccccc23)ccc1F)N1CCN(C(=O)C2CC2)CC1 [olaparib]
CD3+ T cells in tumors (mostly CD8+) (MDSCs and T cells; low dose 0.2 mg/kg): increased
percentages and numbers of CD11b+/Gr1+ MDSCs in tumors (MDSCs and T cells; low dose 0.2 mg/kg): did not significantly affect
numbers and percentages of M-MDSCs in tumors (MDSCs and T cells; moderate dose 5 mg/kg): significantly increased
expression of inflammatory markers (VCAM-1 and COX2) (VCAM-1 and COX2): inhibits the expression of inflammatory markers
